Experimental findings from US20240382465A1, “AROMATIC ACETYLENE DERIVATIVE, AND PREPARATION METHOD THEREFOR AND USE THEREOF” (priority 2021, published 2024) are described below.

For test [1], the target named is recombinant Pseudomonas aeruginosa LpxC (Pseudomonas aeruginosa (strain ATCC 15692 / DSM 22644 / CIP 104116 / JCM 14847 / LMG 12228 / 1C / PRS 101 / PAO1), UniProt P47205). Kind of test: Inhibition of LpxC enzymatic activity (fluorescamine assay). The class given is biochemical. In outline: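 Recombinant P. aeruginosa LpxC (5 nM) with substrate UDP-3-O-(R-3-hydroxydecanoyl)-GlcNAc (10 μM), 120 min at 25 °C; compound 8 points, 4-fold dilution, 0.61-10,000 nM. Product detected by fluorescamine (ex 390/em 495 nm) after stopping with pH 8.0 phosphate; % inhibition versus DMSO control.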

Test [2] relates to E. coli ATCC 25922. As to the kind of experiment: Antibacterial activity, MIC by broth microdilution (CLSI). The class given is cell-based. Conditions: Escherichia coli, ATCC25922; E. coli ATCC 25922, 35° C., 18 to 24 hours; read-out: MIC(E. coli). The procedure, abridged:
(§1)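 Broth microdilution per CLSI, compound at 64-0.06 μg/mL final in twofold steps (1% DMSO from 100× working solutions). Inoculum 5×10^5 cfu/ml; plates incubated at 35° C for 18-24 hours.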
In general terms: Dilution methods test growth across graded concentrations, often in twofold steps.

In test [3] the test system is K. pneumoniae ATCC13883. The test is described as above. The test is classed as cell-based. Conditions: Klebsiella pneumoniae; K. pneumoniae ATCC13883, 35° C., 18 to 24 hours; read-out: MIC(K. Pneumoniae). The procedure, abridged:
as §1

The mark [4] stands for this setting: recombinant P. aeruginosa LpxC 5 nM, substrate 10 μM, 25° C., 120 minutes, read-out: IC50.

In brackets after ≈: the same amount, converted by molar mass. Read-outs that look alike come from different tables or passages of the source.

As usually defined, the IC50 is the point on the concentration scale where inhibition reaches its midpoint. As a reminder, the MIC is the lowest concentration that inhibits growth of the organism. Consider `CNC(=O)c1ccc(C#Cc2ccc(-c3cc(Cn4ccnc4[C@H](C)O)no3)cc2)cc1` [Example 43, (S)-4-((4-(3-((2-(1-hydroxyethyl)-1H-imidazol-1-yl)methyl)isoxazol-5-yl)phenyl)ethynyl)-N-methylbenzamide], for which, in test [1] (setting [4]), the IC50 was 36.7 nM. In addition, the MIC in test [2] came out at 1 µg/mL (≈ 2.34 µM); in test [3] it was 8 µg/mL (≈ 18.8 µM).
On the same counts, the results for `C[C@H](O)c1nccn1Cc1cc(-c2ccc(C#Cc3ccc(OC4CCN(C)CC4)cc3)cc2)on1` [Example 44, (S)-1-(1-((5-(4-((4-((1-methylpiperidin-4-yl)oxy)phenyl)ethynyl)phenyl)isoxazol-3-yl)methyl)-1H-imidazol-2-yl)ethan-1-ol] are 18.6 nM, 2 µg/mL (≈ 4.14 µM) and 8 µg/mL (≈ 16.6 µM).
Take `C[C@H](O)c1nccn1Cc1cc(-c2ccc(C#Cc3ccc(CO)cc3)cc2)on1` [Example 46, (S)-1-(1-((5-(4-((4-(hydroxymethyl)phenyl)ethynyl)phenyl)isoxazol-3-yl)methyl)-1H-imidazol-2-yl)ethan-1-ol]: in test [1] (setting [4]), the IC50 was determined as 23 nM. Also, the MIC in test [2] turned out to be 0.25 µg/mL (≈ 0.626 µM); in test [3], 0.5 µg/mL (≈ 1.25 µM).
On the same counts, the results for `C[C@H](O)c1nccn1Cc1cc(-c2ccc(C#Cc3ccc(CN4CCN(C)CC4)cc3)cc2)on1` [Example 48, (S)-1-(1-((5-(4-((4-((4-methylpiperazin-1-yl)methyl)phenyl)ethynyl)phenyl)isoxazol-3-yl)methyl)-1H-imidazol-2-yl)ethan-1-ol] are 9.77 nM, 2 µg/mL (≈ 4.15 µM) and 8 µg/mL (≈ 16.6 µM).
Regarding `C[C@H](O)c1nccn1Cc1cc(-c2ccc(C#Cc3ccc(CNCCS(C)(=O)=O)cc3)cc2)on1` [Example 49, (S)-1-(1-((5-(4-((4-(((2-(methylsulfonyl)ethyl)amino)methyl)phenyl)ethynyl)phenyl)isoxazol-3-yl)methyl)-1H-imidazol-2-yl)ethan-1-ol], the half-inhibitory concentration (IC50) in test [1] is 11.1 nM. Moreover, the MIC is 1 µg/mL (≈ 1.98 µM) in test [2] and 4 µg/mL (≈ 7.93 µM) in test [3].
With `C[C@H](O)c1nccn1Cc1cc(-c2ccc(C#Cc3ccc(CN4CCS(=O)(=O)CC4)cc3)cc2)on1` [Example 50, (S)-4-(4-((4-(3-((2-(1-hydroxyethyl)-1H-imidazol-1-yl)methyl)isoxazol-5-yl)phenyl)ethynyl)benzyl)thiomorpholine 1,1-dioxide], the 50% inhibitory concentration (IC50) in test [1] (setting [4]) came to 22.2 nM. Further, the minimum inhibitory concentration (MIC) was 2 µg/mL (≈ 3.87 µM) in test [2] and 4 µg/mL (≈ 7.74 µM) in test [3].
On the same counts, the results for `C[C@H](O)c1nccn1Cc1cc(-c2ccc(C#Cc3ccc(CN4CCC(N5CCOCC5)CC4)cc3)cc2)on1` [Example 51, (S)-1-(1-((5-(4-((4-((4-morpholinopiperidin-1-yl)methyl)phenyl)ethynyl)phenyl)isoxazol-3-yl)methyl)-1H-imidazol-2-yl)ethan-1-ol] are 6.7 nM, 2 µg/mL (≈ 3.63 µM) and 8 µg/mL (≈ 14.5 µM).
On the same counts, the results for `C[C@H](O)c1nccn1Cc1cc(-c2ccc(C#Cc3ccc(CN4CC(C#N)C4)cc3)cc2)on1` [Example 52, (S)-1-(4-((4-(3-((2-(1-hydroxyethyl)-1H-imidazol-1-yl)methyl)isoxazol-5-yl)phenyl)ethynyl)benzyl)azetidin-3-carbonitrile] are 11.2 nM, 0.25 µg/mL (≈ 0.539 µM) and 1 µg/mL (≈ 2.16 µM).
On the same counts, the results for `C[C@H](O)c1nccn1Cc1cc(-c2ccc(C#Cc3ccc(CN4CC(C(N)=O)C4)cc3)cc2)on1` [Example 53, (S)-1-(4-((4-(3-((2-(1-hydroxyethyl)-1H-imidazol-1-yl)methyl)isoxazol-5-yl)phenyl)ethynyl)benzyl)azetidin-3-carboxamide] are 13.7 nM, 1 µg/mL (≈ 2.08 µM) and 4 µg/mL (≈ 8.31 µM).
Take `C[C@H](O)c1nccn1Cc1cc(-c2ccc(C#Cc3ccc(CN4CCNC(=O)C4)cc3)cc2)on1` [Example 54, (S)-4-(4-((4-(3-((2-(1-hydroxyethyl)-1H-imidazol-1-yl)methyl)isoxazol-5-yl)phenyl)ethynyl)benzyl)piperazin-2-one]: the IC50 in test [1] (setting [4]) is 16.2 nM. The MIC was determined as 2 µg/mL (≈ 4.15 µM) in test [2] and 4 µg/mL (≈ 8.31 µM) in test [3].
The like results for `C[C@H](O)c1nccn1Cc1cc(-c2ccc(C#Cc3ccc(CNCCC(=O)O)cc3)cc2)on1` [Example 55, (S)-3-((4-((4-(3-((2-(1-hydroxyethyl)-1H-imidazol-1-yl)methyl)isoxazol-5-yl)phenyl)ethynyl)benzyl)amino)propanoic acid] were, in that order, 24.4 nM, 8 µg/mL (≈ 17 µM) and 8 µg/mL (≈ 17 µM).
For the molecule `C[C@H](O)c1nccn1Cc1cc(-c2ccc(C#Cc3ccc(CN4CCC(CO)CC4)cc3)cc2)on1` [Example 56, (S)-1-(1-((5-(4-((4-((4-(hydroxymethyl)piperidin-1-yl)methyl)phenyl)ethynyl)phenyl)isoxazol-3-yl)methyl)-1H-imidazol-2-yl)ethan-1-ol], the IC50 in test [1] (setting [4]) is 14.7 nM. Further, the figures for the MIC in test [2] and in test [3] were 2 µg/mL (≈ 4.03 µM) and 4 µg/mL (≈ 8.05 µM), respectively.
For the molecule `C[C@H](O)c1nccn1Cc1cc(-c2ccc(C#Cc3ccc(CNCCN)cc3)cc2)on1` [Example 57, (S)-1-(1-((5-(4-((4-(((2-aminoethyl)amino)methyl)phenyl)ethynyl)phenyl)isoxazol-3-yl)methyl)-1H-imidazol-2-yl)ethan-1-ol], in test [1] (setting [4]), the IC50 came to 14.1 nM. Also, the MIC in test [2] worked out at 2 µg/mL (≈ 4.53 µM); in test [3] it was 4 µg/mL (≈ 9.06 µM).
On the same counts, the results for `C[C@H](O)c1nccn1Cc1cc(-c2ccc(C#Cc3ccc(CCC(=O)O)nc3)cc2)on1` [Example 58, (S)-3-(5-((4-(3-((2-(1-hydroxyethyl)-1H-imidazol-1-yl)methyl)isoxazol-5-yl)phenyl)ethynyl)pyridin-2-yl)propanoic acid] are 22 nM, 4 µg/mL (≈ 9.04 µM) and 8 µg/mL (≈ 18.1 µM).
`C[C@H](O)c1nccn1Cc1cc(-c2ccc(C#Cc3ccc(CNCCS(C)(=O)=O)nc3)cc2)on1` [Example 59, (S)-1-(1-((5-(4-((6-(((2-(methylsulfonyl)ethyl)amino)methyl)pyridin-3-yl)ethynyl)phenyl)isoxazol-3-yl)methyl)-1H-imidazol-2-yl)ethan-1-ol]: the IC50 in test [1] (setting [4]) stood at 21.8 nM. In addition, the MIC stood at 2 µg/mL (≈ 3.96 µM) in test [2] and 8 µg/mL (≈ 15.8 µM) in test [3].
On to `C[C@H](O)c1nccn1Cc1cc(-c2ccc(C#Cc3ccc(CNCCO)nc3)cc2)on1` [Example 60], for which, in test [1] (setting [4]), the IC50 turned out to be 26.4 nM. In addition, the MIC in test [2] stood at 2 µg/mL (≈ 4.51 µM); in test [3], 4 µg/mL (≈ 9.02 µM).
As to `C[C@H](O)c1nccn1Cc1cc(-c2ccc(C#Cc3ccc(CNCC(N)=O)nc3)cc2)on1` [Example 61], the IC50 in test [1] (setting [4]) amounted to 74.2 nM. For the same molecule, the MIC in test [2] is 1 µg/mL (≈ 2.19 µM); in test [3], 4 µg/mL (≈ 8.76 µM).
On the same counts, the results for `C[C@H](O)c1nccn1Cc1cc(-c2ccc(C#Cc3ccc(CC(N)=O)nc3)cc2)on1` [Example 62, (S)-2-(5-((4-(3-((2-(1-hydroxyethyl)-1H-imidazol-1-yl)methyl)isoxazol-5-yl)phenyl)ethynyl)pyridin-2-yl)acetamide] are 21.3 nM, 1 µg/mL (≈ 2.34 µM) and 4 µg/mL (≈ 9.36 µM).
As to `C[C@H](O)c1nccn1Cc1cc(-c2ccc(C#Cc3cccc(C(N)=O)c3)cc2)on1` [Example 63, (S)-3-((4-(3-((2-(1-hydroxyethyl)-1H-imidazol-1-yl)methyl)isoxazol-5-yl)phenyl)ethynyl)benzamide], the half-inhibitory concentration (IC50) in test [1] (setting [4]) worked out at 65.1 nM. Further, the figures for the MIC in test [2] and in test [3] were 2 µg/mL (≈ 4.85 µM) and 4 µg/mL (≈ 9.7 µM), respectively.
On the same counts, the results for `C[C@H](O)c1nccn1Cc1cc(-c2ccc(C#Cc3cccc(OCC(N)=O)c3)cc2)on1` [Example 64, (S)-2-(3-((4-(3-((2-(1-hydroxyethyl)-1H-imidazol-1-yl)methyl)isoxazol-5-yl)phenyl)ethynyl)phenoxy)acetamide] are 21.6 nM, 4 µg/mL (≈ 9.04 µM) and 2 µg/mL (≈ 4.52 µM).
The like results for `C[C@H](O)c1nccn1Cc1cc(-c2ccc(C#Cc3ccc(OCCCN4CCOCC4)cc3)cc2)on1` [Example 75, (S)-1-(1-((5-(4-((4-(3-morpho-linopropoxy)phenyl)ethynyl)phenyl)isoxazol-3-yl)methyl)-1H-imidazol-2-yl)ethan-1-ol] were, in that order, 61.2 nM, 1 µg/mL (≈ 1.95 µM) and 2 µg/mL (≈ 3.9 µM).
The like results for `CCOC(=O)CC1CN(Cc2ccc(C#Cc3ccc(-c4cc(Cn5ccnc5[C@H](C)O)no4)cc3)cc2)C1` [Example 111, Ethyl (S)-2-(1-(4-((4-(3-((2-(1-hydroxyethyl)-1H-imidazol-1-yl)methyl)isoxazol-5-yl)phenyl)ethynyl)benzyl)azetidin-3-yl)acetate] were, in that order, 8.59 nM, 1 µg/mL (≈ 1.91 µM) and 1 µg/mL (≈ 1.91 µM).
For `C[C@H](O)c1nccn1Cc1cc(-c2ccc(C#Cc3ccc(CN4CCNC(=O)C4)nc3)cc2)on1` [Example 114, (S)-4-((5-((4-(3-((2-(1-hydroxyethyl)-1H-imidazol-1-yl)methyl)isoxazol-5-yl)phenyl)ethynyl)pyridin-2-yl)methyl)piperazin-2-one], the IC50 in test [1] (setting [4]) is 10.5 nM. Further, the MIC came to 2 µg/mL (≈ 4.14 µM) in test [2] and 8 µg/mL (≈ 16.6 µM) in test [3].
